In patent US9775878B2, “Methods for treating bacterial infections using oritavancin and polymyxins” (The Medicines Company, priority 2013, dated 2017):
Read-outs that look alike come from different tables or passages of the source.

Legend:
[1] = system: Acinetobacter baumannii strains; assay: Broth macrodilution MICs under conditions used for synergy time-kill assays; type: cell-based; details: ATCC19609, read-out: Broth macrodilution MICs
[2] = system: S. aureus (MSSA, MRSA, VRSA); details: within 15 minutes to 2 hours, MRSA and VRSA; cited from earlier work
[3] = system: Acinetobacter baumannii strains; assay: Synergy time-kill assay; type: cell-based; details: concentration of the agent within the ORI+COL combination, ≧2 log CFU/mL decrease vs most active constituent at 24 h, 0.002% P80
Method: (§1) Broth microdilution MIC testing (CLSI M07-A9) was performed on the Acinetobacter baumannii (AB) reference strain ATCC 19606 (obtained from ATCC) and 10 AB strains, including 8 MDRAB (resistant to ≧3 of the following: beta-lactams, gentamicin, fluoroquinolones and tetracycline; obtained from Eurofins Medinet Chantilly, Va.). The requirement of 0.002% polysorbate 80 (P-80) for testing oritavancin also necessitated the testing of COL in the presence of P80. Checkerboard assays were used to determine activity of antimicrobial combinations; fractional inhibitory concentration indices (FICI) were used to define synergy, indifference or antagonism. Broth macrodilution MICs were determined following conditions used for synergy time-kill assays. Synergy time-kill studies were performed following CLSI guidelines.
Time-kill assays followed CLSI guidelines (NCCLS, CLSI document M26-A2, 1999) with the exception that 96 deep-well plates were used. Exponential-phase bacteria were diluted to approximately 5×10^5 colony-forming units (CFU)/mL and exposed to ORI or COL alone, or in combination in CAMHB containing 0.002% P80. Bacteria were enumerated by serial dilution plating. To prevent drug carryover during serial dilution plating, aliquots of the drug-challenged culture were added to an equal volume of 25 mg/mL activated charcoal suspension. […] All experiments were repeated at least two times and a representative experiment is presented in the plots; data points are an average of duplicate CFU/mL determinations within an experiment.

[4] = system: Acinetobacter baumannii strains; assay: Broth macrodilution MICs under conditions used for synergy time-kill assays; type: cell-based; details: for Broth macrodilution MICs: agent alone, time-kill conditions
Method: as §1
Minimum inhibitory concentrations (MICs). Broth microdilution MICs were determined according to CLSI (CLSI document M7-A9, 2013) guidelines with the exception that COL MICs were also determined in the presence of 0.002% polysorbate 80 (P80) since P80 was to be present in the combination tests because of its requirement for testing oritavancin. Broth macrodilution MICs were determined following conditions used for synergy time-kill assays.

SMILES: CN[C@H](CC(C)C)C(=O)N[C@H]1C(=O)N[C@@H](CC(N)=O)C(=O)N[C@H]2C(=O)N[C@H]3C(=O)N[C@H](C(=O)N[C@H](C(=O)O)c4cc(O)cc(O)c4-c4cc3ccc4O)[C@H](O[C@H]3C[C@](C)(N)[C@@H](O)[C@H](C)O3)c3ccc(c(Cl)c3)Oc3cc2cc(c3O[C@@H]2O[C@H](CO)[C@@H](O)[C@H](O)[C@H]2O[C@H]2C[C@](C)(NCc3ccc(-c4ccc(Cl)cc4)cc3)[C@@H](O)[C@H](C)O2)Oc2ccc(cc2Cl)[C@H]1O [ORI, Oritavancin]
- MIC [1]: > 8 µg/mL
- Reduction of exponentially-growing S. aureus (rapidity of bactericidal activity) [2]: ≥ 3 log
- Concentrations that yielded synergy in time-kill ([3]; strain 2691748 (Non-MDR)): 8 µg/mL
- Concentrations that yielded synergy in time-kill ([3]; strain 2691818 (Non-MDR)): 4 µg/mL
- Concentrations that yielded synergy in time-kill ([3]; strain 2691999 (MDR)): 4 µg/mL
- Concentrations that yielded synergy in time-kill ([3]; strain 2692406 (MDR)): 4 µg/mL
- Concentrations that yielded synergy in time-kill ([3]; strain 2692650 (MDR)): 4 µg/mL
- Concentrations that yielded synergy in time-kill ([3]; strain 2692721 (MDR)): 4 µg/mL
- Concentrations that yielded synergy in time-kill ([3]; strain 2693922 (MDR)): 4 µg/mL
- Concentrations that yielded synergy in time-kill ([3]; strain 2694038 (MDR)): 4 µg/mL
- Concentrations that yielded synergy in time-kill ([3]; strain 2694224 (MDR)): 4 µg/mL
- Concentrations that yielded synergy in time-kill ([3]; strain 2694227 (MDR)): 4 µg/mL
- Concentrations that yielded synergy in time-kill ([3]; strain ATCC 19609 (Non-MDR)): 4 µg/mL
- MIC ([4]; Acinetobacter baumannii, read-out: Broth macrodilution MICs): > 8 µg/mL
- Broth macrodilution MICs ([4]; strain 2691748 (Non-MDR)): >8 µg/mL
- Broth macrodilution MICs ([4]; strain 2691818 (Non-MDR)): >8 µg/mL
- Broth macrodilution MICs ([4]; strain 2691999 (MDR)): >8 µg/mL
- Broth macrodilution MICs ([4]; strain 2692406 (MDR)): >8 µg/mL
- Broth macrodilution MICs ([4]; strain 2692650 (MDR)): >8 µg/mL
- Broth macrodilution MICs ([4]; strain 2693922 (MDR)): >8 µg/mL
- Broth macrodilution MICs ([4]; strain 2694038 (MDR)): >8 µg/mL
- Broth macrodilution MICs ([4]; strain 2694224 (MDR)): >8 µg/mL
- Broth macrodilution MICs ([4]; strain 2694227 (MDR)): >8 µg/mL
